# Source: PubChem BioAssay AID1996
# Settings: buffer; pH 7.4; 200.0 µM
row,SMILES,solubility kinetic [µg/mL]
1,O=CN1CCN(C(=O)c2ccc3c(c2)OCO3)CC1,> 39.3
2,O=C(O)/C=C/c1ccc(S(=O)(=O)Nc2ccc3[nH]c(=O)[nH]c3c2)cc1,> 53.9
3,N#Cc1ccc(C(=O)Nc2cccc(S(=O)(=O)NC3=NCCC3)c2)cc1,23.7
4,O=[N+]([O-])c1ccc(N2CCN(c3cccc(Cl)c3)CC2)cn1,2.6
5,CC(C)c1ccc(N=Cc2c(O)c3ccccc3oc2=O)cc1,4.3
6,CC(O)CNCCOc1cccc(Oc2ccccc2)c1.O=C(O)C(=O)O (stereo not given),45.6
7,O=C1CSC(c2cccnc2)N1Cc1ccc(Cl)cc1Cl (stereo not given),> 50.9
8,CN(C)c1ccc(N2C(=O)CC(c3ccccc3)CC2=O)cc1,12.3
9,Cc1ccc2[nH]c(=S)n(-c3cccnc3)c(=O)c2c1,2.8
10,O=C(Nc1ccc([N+](=O)[O-])cc1)Nc1cnccn1,2.9
11,Cc1ccc(CNC(=O)C(Cc2ccccc2)n2cccc2)cc1 (stereo not given),5.3
12,Cc1nc2oc3ccc(F)cc3c(=O)c2cc1C(=O)O,40.8
13,Cc1nc([N+](=O)[O-])cn1CC(O)c1ccc(-c2ccccc2)cc1 (stereo not given),17.1
14,COc1cccc(C(=O)NC2CCCc3ccccc32)c1 (stereo not given),7.8
15,O=c1cc(OCc2ccccc2)cc[nH]1,> 30.2
16,Cc1cc(N2CCN(C(=O)/C=C/C(=O)O)CC2)c2ccccc2n1,48.6
17,CCOc1ccc(Nc2cc(C)nc3ccc(C)cc23)cc1,40
18,O=C1Nc2ccc([N+](=O)[O-])cc2C1=Nc1cccc(CO)c1,> 44.6
19,CC(C)c1ccc(C(=O)NN2CCOCC2)cc1,> 37.2
20,Cc1c(C(=O)N2CCC2)oc2c(F)cccc12,30.3
21,CCc1ccccc1NC(=S)N(Cc1cccs1)C1CCCC1,13.9
22,Cc1ccc(C(=O)Nc2ccccc2N2CCCC2)s1,> 43
23,COc1cccc2c(Cl)c(CC=C(Cl)Cl)c(C)nc12,< 0.7
24,COc1ccc(CNC(=O)c2cccc(NC(=O)CC3SC(N4CCCCC4)=NC3=O)c2)cc1 (stereo not given),7.6
25,COc1ccccc1C(CNc1ncccc1[N+](=O)[O-])N(C)C (stereo not given),> 47.5
26,O/N=C/c1ccc2cccc(OCc3ccccc3)c2n1,2.1
27,Cc1ccccc1NC(=O)NCc1cccnc1,> 36.2
28,O=C(COC(=O)c1cc[n+]([O-])cc1)Nc1cccc(F)c1,> 43.5
29,COCCn1cnc2c1c(=O)[nH]c(=O)n2Cc1ccccc1,37
30,O=C(c1ccc(Cl)c(Cl)c1)N1CCN(c2ccccn2)CC1,40.4

# Now from value to compound:
row,solubility kinetic [µg/mL],SMILES
1,26.7,Cc1ccc(N2C(=O)C3CCC(C)(C2=O)C3(C)C)cc1 (stereo not given)
2,1.3,O=[N+]([O-])c1cccc(NC(=S)N2CCc3ccccc3C2)c1
3,> 46.4,Cc1nnc(SCC(=O)Nc2ccc(F)cc2)n(N)c1=O
4,> 68.8,O=[N+]([O-])c1ccc(Cl)c(S(=O)(=O)Nc2cccc(S(=O)(=O)NC3=NCCC3)c2)c1
5,0.8,O=c1c2ccccc2nc(/C=C/c2ccc(Br)cc2)n1CCO
6,> 46.7,O=S(=O)(Nc1ccc(Cl)c(Cl)c1)N1CCOCC1
7,> 44.5,OCc1nc2ccccc2n1CCCCOc1ccccc1
8,35.9,O=C(Nc1ccccc1)Oc1cccc(Br)c1
9,4,Cc1ccc(C)c(OC(=O)CN2C(=O)c3ccccc3C2=O)c1
10,2,Cc1nc(Nc2cccc(O)c2)c2oc3ccccc3c2n1
11,2.3,O=C(NC1CCCCC1)NC1C2CC3CC(C2)CC1C3 (stereo not given)
12,12.8,CC(C)C(=O)Nc1csc(C(F)(F)F)c1-c1ccccc1
13,3.3,CC/C(O)=C1\C(=O)CCCC1=NCCc1c(C)[nH]c2ccc(C)cc12
14,> 53.6,Cc1noc(C)c1COc1ccc(C(=O)N2CCCC(C(N)=O)C2)cc1 (stereo not given)
15,1,CC(C)(C)c1ccc(/C=C/C(=O)Nc2cccnc2)cc1
16,47.4,COCC(=O)N(Cc1nc2sc(C)c(C)c2c(=O)[nH]1)C1CCCCC1
17,5.9,COc1cc(C2NC(=O)c3ccccc3O2)ccc1OC(C)C (stereo not given)
18,25.9,CCOC(=O)C1CCN(Cc2ccc3ccccc3c2)CC1
19,< 0.3,Cc1cc(F)ccc1NC(=O)Nc1ccc2c(c1)OCO2
20,> 53.6,CC(=O)Oc1ccc2occ(/C=N/c3cc(=O)[nH]c(=S)[nH]3)c(=O)c2c1
21,47.1,Cc1ccc(OCC(=O)NC(C)c2ccccc2)c([N+](=O)[O-])n1 (stereo not given)
22,6.1,O=C(COC(=O)/C=C/c1ccc(F)cc1)Nc1ccc(S(=O)(=O)N2CCOCC2)cc1
23,> 40.1,O=C(CN1C(=O)CCC1=O)NC(=O)NC1CCCC1
24,9.1,CC(C)n1c(=S)[nH]c2cc(C(F)(F)F)ccc21
25,44.7,CC(OC(=O)CCCC(=O)Nc1ccc(F)cc1)C(=O)c1ccccc1 (stereo not given)
26,> 44.5,OC(CN1CCN(Cc2ccccc2)CC1)c1ccccc1 (stereo not given)
27,36.9,Cc1ccccc1CC(=O)Nc1cc(C(C)(C)C)on1
28,54.9,O=C(COC(=O)C1CC2CCCC(C1)C2=O)Nc1ccc(F)c(Cl)c1 (stereo not given)
29,1.9,O=C(NCc1ccco1)c1ccc(S(=O)(=O)N2CCCCC2)cc1
30,32.6,Cc1ccc(-c2noc(CNC(=O)c3ccoc3C)n2)cc1
